Test results reported in US7199219B1, “Polypeptides derived from vitamin D nuclear receptor, and their uses in particular for screening vitamin D analogues” (Centre National de la Recherche Scientifique, priority 1999, dated 2007).

T1: VDR (Bos taurus, UniProt Q28037)
T1 sequence (Q28037 1-426): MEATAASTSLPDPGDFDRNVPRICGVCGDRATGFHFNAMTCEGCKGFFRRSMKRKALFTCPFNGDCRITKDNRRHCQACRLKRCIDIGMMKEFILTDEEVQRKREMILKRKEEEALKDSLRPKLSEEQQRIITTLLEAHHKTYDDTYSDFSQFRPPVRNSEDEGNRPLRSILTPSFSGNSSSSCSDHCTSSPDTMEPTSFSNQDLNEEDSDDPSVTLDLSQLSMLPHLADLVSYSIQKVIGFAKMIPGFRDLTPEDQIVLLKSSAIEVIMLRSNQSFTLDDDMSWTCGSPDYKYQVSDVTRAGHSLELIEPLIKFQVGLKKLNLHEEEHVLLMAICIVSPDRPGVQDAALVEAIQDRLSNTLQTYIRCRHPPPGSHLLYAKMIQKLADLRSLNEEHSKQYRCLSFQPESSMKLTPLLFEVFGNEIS

B1: mutant VDR: polypeptide derived from human VDR in which residues 1–117 and 165–215 are suppressed (protein)
chain: DSLRPKLSEEQQRIIAILLDAHHKTYDPTYSDFCQFRPPVRVNDGGGSVTLELSQLSMLPHLADLVSYSIQKVIGFAKMIPGFRDLTSEDQIVLLKSSAIEVIMLRSNESFTMDDMSWTCGNQDYKYRVSDVTKAGHSLELIEPLIKFQVGLKKLNLHEEEHVLLMAICIVSPDRPGVQDAALIEAIQDRLSNTLQTYIRCRHPPPGSHLLYAKMIQKLADLRSLNEEHSKQYRCLSFQPECSMKLTPLVLEVFGNEIS
modifications: Description of the artificial sequence polypeptide derived from the nuclear receptor of the human vitamin D
notes: polypeptide derived from human VDR in which residues 1–117 and 165–215 are suppressed

Assays:
VDR = target: T1, VDR; conditions: versus 1,25(OH)2 D3; cited from earlier work
[1] = tested on: 17 m5-TATA-CAT reporter gene responding to GAL4; test: GAL4-LBD chimera transactivation, CAT reporter in transfected Cos cells; type: cell-based; conditions: Gal4 (1–147) fusion, Cos cells, 1,25(OH)2 D3 10^−7M
Description: b) CAT activities of the wild-type hVDR and of the mutant hVDR; these activities are indicated on the ordinate as a percentage; column 1 corresponds to the CAT activity measured in the absence of vitamin D (VD), of wild-type (wild-type) hVDR and of mutant (truncated) hVDR; column 2 corresponds to CAT activity measured in the presence of VD and in the absence of wild-type hVDR and of mutant hVDR; column 3 corresponds to CAT activity measured in the presence of wild-type hVDR and in the absence of VD and of mutant hVDR; column 4 corresponds to CAT activity measured in the presence of VD and of wild-type hVDR and in the absence of mutant hVDR; column 5 corresponds to CAT activity measured in the presence of mutant hVDR, and in the absence of VD and of wild-type hVDR; column 6 corresponds to CAT activity measured in the presence of mutant hVDR and of VD and in the absence of wild-type hVDR.
No significant change was observed between the dissociation constants of the wild-type and mutant VDRs was observed, the values being similar to that described previously for the whole receptor (Bouillon et al., 1995). […] The chimeric proteins were expressed by transfection into Cos cells, and the transactivation was measured with an appropriate reporter responding to GAL4.

| Molecule | binding affinity relative to the natural ligand (VDR) | transactivation properties (CAT activity) compared with wild-type LBD [1] |
| --- | --- | --- |
| C=C1C(=CC=C2CCCC3(C)C2CCC3C(C)CCCC(C)(C)O)CC(O)C(C)C1O (stereo not drawn) [2 α-methyl 1,25(OH)2 D3] | 4 times | – |
| B1 | – | comparable transactivation properties |
